In patent US20250136722A1, “CYTOTOXICITY TARGETING CHIMERAS” (GLAXOSMITHKLINE INTELLECTUAL PROPERTY DEVELOPMENT LIMITED, priority 2021, published 2025):
Values joined by “and” are separate entries in the source; they are usually repeats but may differ in a detail not shown here. Equal entries are not always repeated.

Legend:
[1] = target: T1, CHOK1 cells engineered to overexpress human CCR2 (Homo sapiens, UniProt P41597); assay: Antibody dependent cellular cytotoxicity (ADCC) reporter assay (Example 199); assay type: cell-based; conditions: with anti-cotinine antibody SEQ ID NO: 11/12; CHOK1-human CCR2 target cells, Jurkat FcγRIIIa NFAT-luciferase reporter cells; 12-18 hours; read-out: ADCC Reporter Assay pEC50 (converted)
T1 construct: expressed in transfected cells; host or cells: CHOK1 cells
Summary of the method: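 Potency is reported as pEC50 from a nonlinear fit, averaged over runs, using luciferase signal divided by that of compound-free wells. The readout comes from NFAT-luciferase Jurkat cells expressing FcγRIIIa, mixed for 12–18 h with human CCR2-overexpressing CHOK1 cells, 1 pM–10 μM ARM compound and 0.01–200 μg/mL Fc-enhanced anti-cotinine IgG1.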

[2] = target: Anti-cotinine antibody (SEQ ID NO: 11 / SEQ ID NO: 12, rabbit variable region with human IgG1 Fc domain); assay: Binding of anti-cotinine antibody to ARM compounds by SPR, Biacore T200, 37° C. (Example 202); conditions: pH 7.4, rabbit variable region/human IgG1 Fc antibody captured on protein A
Protocol: Anti-cotinine antibodies having a heavy chain sequence of SEQ ID NO: 11 and a light chain sequence of SEQ ID NO: 12 (rabbit variable region with human IgG1 Fc domain containing a DE mutation (S239D/1332E)) were captured on one or more flow cells of a protein A sensor chip (Cytiva) using a Biacore T200 while reserving flow cell 1 as a reference. Following capture, a 3000 second wait step was included to reduce drift during compound analysis. ARM compounds of Formula (I) were then injected at 100 μL/min with 200 and 2000 second association and dissociation times. The entire experiment was run at 37° C. with running buffer containing 10 mM HEPES pH 7.4, 150 mM NaCl, 0.005% P20 and 1% DMSO. ARM compounds of Formula (I) were titrated with a top concentration of 200 nM using a 3-fold 5-point dilution series and a corresponding 5-injection buffer cycle was run for blank subtraction. Data were double referenced by subtracting the response of the reference flow cell from that of the antibody-containing flow cell and subsequently subtracting the referenced blank sensorgrams. Following compound analysis, the surface was regenerated using a 30 second injection of pH 1.5 glycine at a flow rate of 30 μL/min after which antibody was re-captured. The experiment was run using Biacore T200 control software and evaluated using Biacore T200 Evaluation software. Curves were fit with a 1:1 kinetic binding model to obtain kon(1/Ms), koff(1/s), Kd (M) determined as koff/kon, and residence time determined as 1/koff. (s).
Anti-cotinine antibody was tested for binding to ARMs compounds of Formula (I) of the invention in the above assay in or more experimental runs and the results are shown in Table 5 below. Affinity is reported as a pKd value. The pKd value is the negative log of the Kd value, wherein the Kd value is the dissociation constant measured in molar (M) as noted above. For compounds tested in more than one experimental run, the pKd value is reported as an average.

Compound | EC50 [1] | pKd of Antibody for ARM Compound of Formula (I) [2]
CN1C(=O)C[C@H](C(=O)NCCO[C@H]2CC[C@@H](OCCCC(=O)N[C@H]3CC[C@H](C(=O)N[C@@H]4C[C@H](NC(C)(C)C)CC[C@@H]4N4CC[C@H](Nc5ncnc6ccc(C(F)(F)F)cc56)C4=O)CC3)CC2)[C@H]1c1cccnc1 [Example 2] | 5.06 nM | 9.4775
CC(C)N(C)[C@@H]1CC[C@H](N2CC[C@H](Nc3ncnc4ccc(C(F)(F)F)cc34)C2=O)[C@H](NC(=O)[C@H]2CC[C@@H](NC(=O)CCCO[C@H]3CC[C@@H](OCCNC(=O)[C@H]4CC(=O)N(C)[C@@H]4c4cccnc4)CC3)CC2)C1 [Example 3] | 0.155 nM and 0.283 nM | 9.2795
CC(C)N(C)[C@@H]1CC[C@H](N2CC[C@H](Nc3ncnc4ccc(C(F)(F)F)cc34)C2=O)[C@H](NC(=O)[C@H]2CC[C@H](NC(=O)CCCO[C@H]3CC[C@@H](OCCNC(=O)[C@H]4CC(=O)N(C)[C@@H]4c4cccnc4)CC3)CC2)C1 [Example 4] | 6.3 nM and 2.79 nM and 4.89 nM | 9.526
CC(C)N(C)[C@@H]1CC[C@H](N2CC[C@H](Nc3ncnc4ccc(C(F)(F)F)cc34)C2=O)[C@H](NC(=O)CCOCCNC(=O)CCCO[C@H]2CC[C@@H](OCCNC(=O)[C@H]3CC(=O)N(C)[C@@H]3c3cccnc3)CC2)C1 [Example 6] | 0.378 nM | 9.282
CC(C)N(C)[C@@H]1CC[C@H](N2CC[C@H](Nc3ncnc4ccc(C(F)(F)F)cc34)C2=O)[C@H](NC(=O)[C@H]2CC[C@H](CNC(=O)CCCC(=O)NCCCOCCCNC(=O)[C@H]3CC(=O)N(C)[C@@H]3c3cccnc3)CC2)C1 [Example 20] | 0.0832 nM | 8.8705
CC(C)N(C)[C@@H]1CC[C@H](N2CC[C@H](Nc3ncnc4ccc(C(F)(F)F)cc34)C2=O)[C@H](NC(=O)C2CCN(C(=O)CCOCCOCCOCCNC(=O)[C@H]3CC(=O)N(C)[C@@H]3c3cccnc3)CC2)C1 [Example 29] | 12.6 nM | 9.3345
CN1C(=O)C[C@H](C(=O)NCCOCCOCCOCCC(=O)N[C@H]2CC[C@H](C(=O)N[C@@H]3C[C@H](NC(C)(C)C)CC[C@@H]3N3CC[C@H](Nc4ncnc5ccc(C(F)(F)F)cc45)C3=O)CC2)[C@H]1c1cccnc1 [Example 31] | 7.94 nM | 9.3015
CC(C)N(C)[C@@H]1CC[C@H](N2CC[C@H](Nc3ncnc4ccc(C(F)(F)F)cc34)C2=O)[C@H](NC(=O)[C@H]2CC[C@H](CNC(=O)CCOCCOCCOCCNC(=O)[C@H]3CC(=O)N(C)[C@@H]3c3cccnc3)CC2)C1 [Example 32] | 1.07 nM and 0.593 nM | 9.1825
CC(C)N(C)[C@@H]1CCC(N2CC[C@H](Nc3ncnc4ccc(C(F)(F)F)cc34)C2=O)[C@H](NC(=O)CCOCCOCCOCCOCCOCCOCCOCCOCCNC(=O)[C@H]2CC(=O)N(C)[C@@H]2c2cccnc2)C1 (some centres unmarked) [Example 42] | 0.398 nM | 9.23
CC(C)N(C)[C@@H]1CC[C@H](N2CC[C@H](Nc3ncnc4ccc(C(F)(F)F)cc34)C2=O)[C@H](NC(=O)CCOCCNC(=O)CCOCCNC(=O)CCOCCNC(=O)[C@H]2CC(=O)N(C)[C@@H]2c2cccnc2)C1 [Example 46] | 0.501 nM | 9.074
CC(C)N(C)[C@@H]1CC[C@H](N2CC[C@H](Nc3ncnc4ccc(C(F)(F)F)cc34)C2=O)[C@H](NC(=O)COCCNC(=O)CCOCCNC(=O)CCOCCNC(=O)[C@H]2CC(=O)N(C)[C@@H]2c2cccnc2)C1 [Example 47] | 2.84 nM | 9.051
CC(C)N(C)[C@@H]1CC[C@H](N2CC[C@H](Nc3ncnc4ccc(C(F)(F)F)cc34)C2=O)[C@H](NC(=O)COCCNC(=O)CCOCCOCCNC(=O)CCNC(=O)[C@H]2CC(=O)N(C)[C@@H]2c2cccnc2)C1 [Example 50] | 1.41 nM | 9.1485
CC(C)N(C)[C@@H]1CC[C@H](N2CC[C@H](Nc3ncnc4ccc(C(F)(F)F)cc34)C2=O)[C@H](NC(=O)[C@H]2C[C@H](NC(=O)CCOC[C@H]3CC[C@H](COCCNC(=O)[C@H]4CC(=O)N(C)[C@@H]4c4cccnc4)CC3)C2)C1 [Example 54] | 1 nM | 9.5515
CC(C)N(C)[C@@H]1CC[C@H](N2CC[C@H](Nc3ncnc4ccc(C(F)(F)F)cc34)C2=O)[C@H](NC(=O)[C@H]2C[C@@H](NC(=O)CCOC[C@H]3CC[C@H](COCCNC(=O)[C@H]4CC(=O)N(C)[C@@H]4c4cccnc4)CC3)C2)C1 [Example 55] | 0.377 nM | 9.4085
CC(C)N(C)[C@@H]1CC[C@H](N2CC[C@H](Nc3ncnc4ccc(C(F)(F)F)cc34)C2=O)[C@H](NC(=O)[C@H]2CC[C@@H](NC(=O)CCCC(=O)NCCCC(=O)NCCCNC(=O)[C@H]3CC(=O)N(C)[C@@H]3c3cccnc3)CC2)C1 [Example 56, N-((1S,4s)-4-(((1R,2S,5R)-5-(Isopropyl(methyl)amino)-2-((S)-2-oxo-3-((6-(trifluoromethyl)quinazolin-4-yl)amino)pyrrolidin-1-yl)cyclohexyl)carbamoyl)cyclohexyl)-N^5-(4-((3-((2S,3S)-1-methyl-5-oxo-2-(pyridin-3-yl)pyrrolidine-3-carboxamido)propyl)amino)-4-oxobutyl)glutaramide] | 0.655 nM and 0.128 nM | 9.3185
CN1C(=O)C[C@H](C(=O)NCC(=O)NCCOCCOCCC(=O)N[C@H]2CC[C@@H](C(=O)N[C@@H]3C[C@H](NC(C)(C)C)CC[C@@H]3N3CC[C@H](Nc4ncnc5ccc(C(F)(F)F)cc45)C3=O)CC2)[C@H]1c1cccnc1 [Example 65] | 1.4 nM and 0.498 nM | 8.648
CC(C)N(C)[C@@H]1CC[C@H](N2CC[C@H](Nc3ncnc4ccc(C(F)(F)F)cc34)C2=O)[C@H](NC(=O)[C@H]2C[C@@H](NC(=O)CCOCCOCCNC(=O)CNC(=O)[C@H]3CC(=O)N(C)[C@@H]3c3cccnc3)C2)C1 [Example 66] | 0.431 nM | 8.649
CC(C)N(C)[C@@H]1CC[C@H](N2CC[C@H](Nc3ncnc4ccc(C(F)(F)F)cc34)C2=O)[C@H](NC(=O)COCCOCCNC(=O)COCCNC(=O)CCNC(=O)[C@H]2CC(=O)N(C)[C@@H]2c2cccnc2)C1 [Example 74, (2S,3S)-N-(1-(((1R,2S,5R)-5-(isopropyl(methyl)amino)-2-((S)-2-oxo-3-((6-(trifluoromethyl)quinazolin-4-yl)amino)pyrrolidin-1-yl)cyclohexyl)amino)-1,10,16-trioxo-3,6,12-trioxa-9,15-diazaoctadecan-18-yl)-1-methyl-5-oxo-2-(pyridin-3-yl)pyrrolidine-3-carboxamide] | 9.64 nM | 9.091
CC(C)N(C)[C@@H]1CC[C@H](N2CC[C@H](Nc3ncnc4ccc(C(F)(F)F)cc34)C2=O)[C@H](NC(=O)CCOCCOCCNC(=O)COCCNC(=O)CCNC(=O)[C@H]2CC(=O)N(C)[C@@H]2c2cccnc2)C1 [Example 75] | 1.63 nM | 9.103
CC(C)N(C)[C@@H]1CC[C@H](N2CC[C@H](Nc3ncnc4ccc(C(F)(F)F)cc34)C2=O)[C@H](NC(=O)COCCNC(=O)CCNC(=O)COCCOCCNC(=O)[C@H]2CC(=O)N(C)[C@@H]2c2cccnc2)C1 [Example 79] | 5.2 nM | 9.126
CC(C)N(C)[C@@H]1CC[C@H](N2CC[C@H](Nc3ncnc4ccc(C(F)(F)F)cc34)C2=O)[C@H](NC(=O)COCCNC(=O)CNC(=O)CCOCCOCCNC(=O)[C@H]2CC(=O)N(C)[C@@H]2c2cccnc2)C1 [Example 80] | 1.58 nM | 9.109
CC(C)N(C)[C@@H]1CC[C@H](N2CC[C@H](Nc3ncnc4ccc(C(F)(F)F)cc34)C2=O)[C@H](NC(=O)[C@H]2CC[C@@H](NC(=O)CNC(=O)CCOCCOCCNC(=O)[C@H]3CC(=O)N(C)[C@@H]3c3cccnc3)CC2)C1 [Example 83] | 0.269 nM | 9.302
